Laboratory results reported in paper PMC1978516, “The PDZ Domain as a Complex Adaptive System” (PLoS ONE, 2007).
Ends that are not written are not given here.

What was measured:
second PSD95 PDZ domain = settings: cited from earlier work
Description: (§1) In order to gain insight into the pattern recognition differences of the PDZ domains that belong to the same class but are able to differentiate between peptide ligands sharing the class-defining C-terminal consensus, we investigated a particular case of this general puzzle, namely, the differences in recognition preferences between the second and third PDZ domains of PSD95, which are classified as type I PDZ domains but are known to discriminate between various X-(S/T)-X-(V/I/L)-COOH ligands, [18]. In Fig. 5A we compare two sets of C-terminal sequences. The first set represents the s ...

first PSD95 PDZ domain = settings: cited from earlier work
Description: as §1

third PSD95 PDZ domain = settings: cited from earlier work
Description: as §1

PSD95-PDZ3 [1] = assay: phage ELISA on immobilized GST-PDZ fusion; assay type: binding; settings: Fig. 1 and not shown
Experimental: Binding histograms were obtained by individual phage ELISA performed on purified GST fusions of the indicated domains immobilized in micro-titer plate wells [40]. For accurate relative affinity evaluations and cross-domain comparison, the slopes of individual ELISA kinetics were determined and normalized by the highest slope value in each of the six sets shown. The 96th well in each set was loaded with a library aliquot to indicate background. Axis X indicates identification (i.d.) numbers of individual artificial ligands (see individual ligand sequences together with their i.d. numbers in Table S1). Axis Y indicates the normalized relative affinity. The domain organization of the PSD95 and SAP97 proteins is shown above histograms.
GST fusion-coated microtiter ELISA plates (COSTAR) were prepared by passive immobilization of 1 µg of the indicated GST fusion proteins (Fig. 1) per well in 200 µl of 0.1M NaHCO3, pH 8.0, overnight at 4°C. Following protein coating, plates were blocked by adding 150 µl of 1% BSA in TBS for 1 hour at RT. Following incubation, the wells with immobilized target proteins were washed 5 (x1ml) times with TBS-T. One hundred µl of freshly prepared individual phage lysate was added to the ELISA plate wells and incubated for 1 hour at RT. Following incubation, unbound phages were washed away with TBS-T and the amount of retained phages was determined with polyclonal T7 phage-specific antibodies followed by monoclonal anti-rabbit antibodies conjugated to horseradish peroxidase (HRP) (Amersham Pharmacia). The individual phage ELISA kinetics were followed and quantified colorimetrically using soluble HRP substrate (ABTS/H2O2). ELISA readings were taken on a SpectraMAX190 plate reader (Molecular Devices) at 405 nm. To ensure reproducibility, each of the individual phage ELISA binding histograms presented was obtained at least three times in at least three separate experiments performed by two different experimenters.

PSD95-PDZ2 = assay: peptide ELISA on immobilized GST-PDZ fusion; assay type: binding; settings: Fig. 3
Description: (§2) Figure 3 Binding of 126 proteomic fragments (natural ligands) to six PDZ domains of PSD95 and SAP97. Binding histograms were obtained by peptide ELISA performed on purified GST fusions of the indicated domains immobilized in micro-titer plate wells as described previously. The X axis indicates the i.d. numbers of natural ligands (see Table S2). The Y axis indicates the peptide ELISA kinetics slope value in arbitrary units (a.u.). The 127th and 128th wells in each of the six sets were loaded with irrelevant peptides to indicate background signal. To illustrate internal consistency of the affinity evaluations obtained by peptide ELISA and their external consistency with the previously published affinity measurements, the reported affinities of the five PDZ domain-ligand pairs obtained by three different research groups using fluorescence polarization, [18], [32] are shown.
(§3) Wells of microtiter plates were coated with 1 µg of the indicated GST-PDZ domain fusions, washed with TBS-T and blocked with 1% BSA in the same way as described above for phage ELISA. Individual biotinylated peptides (30 ng) were pre-incubated with 1 µg of streptavidin-HRP conjugate (Pierce) in 300 µl of TBS-T for 30 min at RT. One hundred µl of the peptide-streptavidin-HRP conjugate were added to 100 µl of TBS-T left in each coated well after the final wash of the protein immobilization/blocking procedure. Microtiter plates were incubated for 1 hour at RT, and then washed 5 (x1mL) times with TBS-T. The amounts of peptides retained were quantified colorimetrically by adding soluble HRP substrate (ABTS/H2O2) and measuring ELISA kinetic slopes. ELISA readings were taken on a SpectraMAX190 plate reader (Molecular Devices) at 405 nm. To ensure reproducibility, all peptide ELISA experiments presented were repeated at least three times in at least three separate experiments performed by two different experimenters.

PSD95-PDZ3 [2] = assay: peptide ELISA on immobilized GST-PDZ fusion; assay type: binding; settings: Fig. 3
Description: as §2, §3

SAP97-PDZ2 = assay: peptide ELISA on immobilized GST-PDZ fusion; assay type: binding; settings: Fig. 3
Description: as §2, §3

Row | Substance | interaction with the second PSD95 PDZ domain (second PSD95 PDZ domain) | interaction with the first PSD95 PDZ domain (first PSD95 PDZ domain) | interaction with the third PSD95 PDZ domain (third PSD95 PDZ domain) | interaction with PSD95-PDZ3 in vitro (PSD95-PDZ3 [1]) | further results
1 | KKMPSIESDV-OH [NR2A] | bind | bind | fail to interact | – | –
2 | VNIKKIFTDV-OH [Kv1.3] | bind | bind | fail to interact | – | –
3 | TSGTKRSWYHSF> [compound 18] | – | – | – | interacts selectively and with reasonable affinity | –
4 | ALPDGNIAESLESLV> [compound 018, N-terminally biotinylated 15-mer proteomic fragment, SWISS-PROT P23471, receptor-type tyrosine protein phosphatase zeta] | – | – | – | – | binding to the second PDZ domain of PSD95 (PSD95-PDZ2): bind to the second PDZ domains; binding to the third PDZ domain of PSD95 (PSD95-PDZ3 [2]): not to their third PDZ domains; binding to the second PDZ domain of SAP97 (SAP97-PDZ2): bind to the second PDZ domains
5 | IADESDPAESMESLV> [compound 017, N-terminally biotinylated 15-mer proteomic fragment, SWISS-PROT P23470, receptor-type tyrosine protein phosphatase gamma] | – | – | – | – | binding to the second PDZ domain of PSD95 (PSD95-PDZ2): bind to the second PDZ domains; binding to the third PDZ domain of PSD95 (PSD95-PDZ3 [2]): not to their third PDZ domains; binding to the second PDZ domain of SAP97 (SAP97-PDZ2): bind to the second PDZ domains
6 | TRGTKRSWYYSF> [compound 20] | – | – | – | interacts selectively and with reasonable affinity | –
7 | VNKSKLLTDV-OH [Kv1.1] | bind | bind | fail to interact | – | –
8 | VNITKMLTDV-OH [Kv1.2] | bind | bind | fail to interact | – | –
9 | EKLSSIESDV-OH [NR2B] | bind | bind | fail to interact | – | –
10 | TRGTKRSWYHSF> [compound 17] | – | – | – | interacts selectively and with reasonable affinity | –
11 | TTGKKRRWYHSF> [compound 19] | – | – | – | interacts selectively and with reasonable affinity | –
